Results: PMC11091832 (Journal of medicinal chemistry, 2021)
Like-named read-outs stand apart in the source and are kept apart here.

Experiments:
hD2LR [1] = molecular target: T1, hD2LR (Homo sapiens, UniProt P14416); assay: Radioligand binding, agonist [3H]-; settings: for (D3R/D2R) Ki ratio, [3H]-(R)-(+)-7-OH-DPAT: selectivity for D2R, value printed in parentheses
hD3R [2] = molecular target: T2, hD3R (Homo sapiens, UniProt P35462); assay: Radioligand binding, agonist [3H]-
hD3R [3] = molecular target: T2, hD3R
hD2LR [4] = molecular target: T1, hD2LR

T1 sequence (P14416 whole entry): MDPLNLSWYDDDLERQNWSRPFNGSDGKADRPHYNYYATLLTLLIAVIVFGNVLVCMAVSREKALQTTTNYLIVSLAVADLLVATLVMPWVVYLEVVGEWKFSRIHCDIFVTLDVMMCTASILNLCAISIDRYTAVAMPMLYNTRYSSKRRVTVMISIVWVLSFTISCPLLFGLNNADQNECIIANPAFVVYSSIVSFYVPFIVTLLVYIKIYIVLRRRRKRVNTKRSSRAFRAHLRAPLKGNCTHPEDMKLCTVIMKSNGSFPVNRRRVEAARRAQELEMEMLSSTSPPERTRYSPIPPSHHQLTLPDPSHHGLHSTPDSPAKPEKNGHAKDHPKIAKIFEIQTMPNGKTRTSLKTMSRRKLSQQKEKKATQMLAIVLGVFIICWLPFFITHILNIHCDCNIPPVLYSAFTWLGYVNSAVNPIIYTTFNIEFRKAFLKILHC
T2 sequence (P35462 whole entry): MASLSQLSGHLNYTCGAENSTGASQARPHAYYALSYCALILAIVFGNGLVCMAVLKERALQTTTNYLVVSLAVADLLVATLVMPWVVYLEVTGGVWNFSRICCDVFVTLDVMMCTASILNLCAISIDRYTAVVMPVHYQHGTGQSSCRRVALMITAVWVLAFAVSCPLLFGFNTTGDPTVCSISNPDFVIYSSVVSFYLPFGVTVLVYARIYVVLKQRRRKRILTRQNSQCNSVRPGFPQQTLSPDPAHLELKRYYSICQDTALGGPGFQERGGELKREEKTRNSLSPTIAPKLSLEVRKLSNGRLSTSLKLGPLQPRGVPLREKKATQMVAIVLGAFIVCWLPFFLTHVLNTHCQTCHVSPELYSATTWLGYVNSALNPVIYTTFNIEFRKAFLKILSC

Row | (D3R/D2R) Ki ratio, [3H]-(R)-(+)-7-OH-DPAT (hD2LR [1]) | Ki (hD3R [2]) [nM] | Ki (hD2LR [1]) [nM] | Ki (hD3R [3]) [nM] | Ki (hD2LR [4]) [nM] | Compound
1 | (9.6) | – | – | – | – | CN(CC[C@@H]1CC[C@H](CNC(=O)c2cc3ccccc3[nH]2)C1)[C@@H]1Cc2cccc3[nH]c(=O)n(c23)C1 (relative stereo) [rel-cis-16a, N-((3-(2-(Methyl((R)-2-oxo-1,2,5,6-tetrahydro-4H-imidazo[4,5,1-ij]quinolin-5-yl)amino)ethyl)cyclopentyl)methyl)-1H-indole-2-carboxamide]
2 | – | 7.41 ± 0.323 | 55.9 ± 4.78 | 104 ± 7.65 | 7920 ± 772 | C[C@H]1CO[C@@H](c2ccc(N)nc2)CN1CC=C1CCC(CNC(=O)c2cc3ccccc3[nH]2)C1 (mixture of isomers) [Compound 15, N-((3-(2-((2S,5S)-2-(6-Aminopyridin-3-yl)-5-methylmorpholino)ethylidene)cyclopentyl)methyl)-1H-indole-2-carboxamide]
3 | (17) | – | – | – | – | CN(CC[C@@H]1CC[C@@H](CNC(=O)c2cc3ccccc3[nH]2)C1)[C@@H]1Cc2cccc3[nH]c(=O)n(c23)C1 (relative stereo) [rel-trans-16b, N-((3-(2-(Methyl((R)-2-oxo-1,2,5,6-tetrahydro-4H-imidazo[4,5,1-ij]quinolin-5-yl)amino)ethyl)cyclopentyl)methyl)-1H-indole-2-carboxamide]
